This is an account of results in ChEMBL document CHEMBL1201862, “PubChem BioAssay data set” (2004).

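Growth conditions: 96-well plates. Treatment: test compound, 48 hours, 5 concentrations. Analysis: linear interpolation between bracketing concentrations; unreached endpoints set to highest concentration. GI50: concentration for 50% inhibition of growth.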 Calls of active or inactive are those of the source. No stated cut-off is given here; in the data, active = GI50 up to about 1.1 µM and inactive = higher. Some results are limits rather than exact numbers.

Some test systems named below: 786-0; ACHN; BT-549; CAKI-1; HT-29; MDA-N; MOLT-4; NCI-H226; NCI-H522; OVCAR-5; OVCAR-8; PC-3; RPMI-8226; SK-MEL-2; SN12C; SNB-75; U-251; UACC-62; SR; T47D.
Holding throughout (experiment): NCI-60 cell line screen, 48 h

With `N#Cc1c(-c2ccc(Cl)cc2)c(C#N)c(=O)n(NS(=O)(=O)c2ccccc2)c1O`, the GI50 was 29.8 µM (inactive) with 786-0; 25.9 µM (inactive) with ACHN; 13.4 µM (inactive) in the test with BT-549; 21 µM (inactive) in the test with CAKI-1; 34.8 µM (inactive) with HT-29; 19.8 µM (inactive) with MDA-N. Further, the GI50 is 22.5 µM (inactive) with MOLT-4; 28.2 µM (inactive) in the test with NCI-H226; 27.9 µM (inactive) in the test on NCI-H522; 31 µM (inactive) in the test on OVCAR-5; 28.8 µM (inactive) with OVCAR-8; 19.6 µM (inactive) in the test on PC-3. The GI50 is 6.44 µM (inactive) with RPMI-8226; 19.6 µM (inactive) in the test with SK-MEL-2; 13.6 µM (inactive) in the test with SN12C; 34 µM (inactive) in the test on SNB-75; 32.7 µM (inactive) in the test on U-251; 15.1 µM (inactive) in the test on UACC-62.

As for `Clc1cccc(/C=c2\nc(-c3ccccc3)n3c2nc2ccccc23)c1`, the GI50 was > 100 µM (inactive) with 786-0; 88.3 µM (inactive) with BT-549; > 100 µM (inactive) with CAKI-1; > 100 µM (inactive) in the test on HT-29; > 100 µM (inactive) in the test with MDA-N; > 100 µM (inactive) in the test on MOLT-4. The GI50 in the test on NCI-H226, with OVCAR-5, in the test on OVCAR-8, in the test with PC-3, in the test on RPMI-8226 and in the test on SK-MEL-2 was > 100 µM (inactive) each time. For the same molecule, the GI50 in the test with SN12C is > 100 µM (inactive); in the test with SNB-75, 20 µM (inactive); in the test on SR it was > 100 µM (inactive); in the test with U-251 it was 60.4 µM (inactive); in the test on UACC-62, 21.5 µM (inactive).

Take `CC(C)(C)OC(=O)NCCNC(=O)OCc1ccccc1`: the GI50 in the test on 786-0, in the test with ACHN, in the test on BT-549, in the test on CAKI-1, with HT-29 and in the test on MDA-N was > 100 µM (inactive) in each case. Besides, the GI50 in the test with MOLT-4, in the test with NCI-H226, in the test with NCI-H522, in the test on OVCAR-5, in the test on OVCAR-8 and in the test with PC-3 was > 100 µM (inactive) throughout. Further, the GI50 in the test with RPMI-8226, in the test on SK-MEL-2, in the test with SN12C, in the test with SNB-75, in the test with SR and in the test with U-251 was > 100 µM (inactive) throughout. The GI50 in the test on UACC-62 was > 100 µM (inactive).

With `COC(=O)C1=C(C(=O)OC)SC(=C2S[C@@H]3[C@@H]4C[C@H]([C@@H]3S2)[C@H]2C(=O)OC(=O)[C@@H]42)S1`, the GI50 with 786-0, with ACHN, in the test on BT-549, with CAKI-1, in the test with HT-29 and in the test on MOLT-4 was > 100 µM (inactive) in each case. Also, the GI50 with NCI-H226, with NCI-H522, in the test on OVCAR-5, in the test with OVCAR-8, with PC-3 and in the test with RPMI-8226 was > 100 µM (inactive) each time. Further, the GI50 in the test on SK-MEL-2, with SN12C, in the test with T47D, with U-251 and in the test with UACC-62 was > 100 µM (inactive) in each case.

As for `COc1ccc(P2(=S)OC(C)(C)C(C)(C)O2)cc1`, the GI50 with 786-0 is > 100 µM (inactive); with ACHN, > 100 µM (inactive); in the test with CAKI-1, 50.9 µM (inactive); with HT-29, > 100 µM (inactive); in the test with MDA-N it was > 100 µM (inactive); in the test on MOLT-4, > 100 µM (inactive). Besides, the GI50 in the test with NCI-H226, in the test on NCI-H522, in the test on OVCAR-5, in the test with OVCAR-8, in the test on PC-3 and in the test on SK-MEL-2 was > 100 µM (inactive) throughout. Moreover, the GI50 in the test on SN12C was > 100 µM (inactive); in the test on SNB-75 it was > 100 µM (inactive); in the test with SR, > 100 µM (inactive); in the test on T47D, 6.93 µM (inactive); with U-251 it was > 100 µM (inactive); in the test with UACC-62, > 100 µM (inactive).

`CC(=O)OCCn1cnc2nc(Nc3ccccc3)nc(Cl)c21`: the GI50 was > 100 µM (inactive) with 786-0; 42 µM (inactive) in the test on ACHN; > 100 µM (inactive) in the test on HT-29; 36.1 µM (inactive) in the test with MDA-N; 54.2 µM (inactive) with MOLT-4; > 100 µM (inactive) in the test on NCI-H226. Further, the GI50 was 84.9 µM (inactive) in the test on NCI-H522; > 100 µM (inactive) with OVCAR-5; > 100 µM (inactive) with OVCAR-8; 62.7 µM (inactive) in the test with PC-3; 89.5 µM (inactive) in the test with RPMI-8226; > 100 µM (inactive) in the test with SN12C. In addition, the GI50 in the test with SR is 54.8 µM (inactive); with T47D it was 40.7 µM (inactive); in the test with U-251, 58.3 µM (inactive); in the test on UACC-62, 44.1 µM (inactive).

Regarding `CCCNC(=S)N/N=C/c1cccc(C)n1`, the GI50 in the test on 786-0 was 26 µM (inactive); with ACHN, 13.4 µM (inactive); with HT-29 it was 18 µM (inactive); in the test with MDA-N, 30.6 µM (inactive); with MOLT-4, 16.8 µM (inactive); with NCI-H226 it was 19.8 µM (inactive). Further, the GI50 is 4.04 µM (inactive) in the test on NCI-H522; 44.5 µM (inactive) with OVCAR-5; 28 µM (inactive) in the test on OVCAR-8; 38.6 µM (inactive) with PC-3; 24.3 µM (inactive) with RPMI-8226; 1.09 µM (active) with SK-MEL-2. Moreover, the GI50 with SN12C is 29.2 µM (inactive); in the test with SR it was 15 µM (inactive); in the test with T47D it was 3.43 µM (inactive); in the test on U-251 it was 21.9 µM (inactive); with UACC-62, 20.8 µM (inactive).

As for `CCN1CC2=C(OC(N)=C(C#N)C2c2ccc(Cl)cc2)/C(=C/c2ccc(Cl)cc2)C1` (configuration not stated), the GI50 with 786-0 is 12.1 µM (inactive); in the test on ACHN it was 15.7 µM (inactive); in the test with BT-549, 70.8 µM (inactive); with CAKI-1, 10.2 µM (inactive); with HT-29, 38.7 µM (inactive); with MDA-N, 35 µM (inactive). Moreover, the GI50 was 3.19 µM (inactive) in the test on MOLT-4; 31 µM (inactive) in the test with NCI-H226; 25.1 µM (inactive) in the test with NCI-H522; 20.1 µM (inactive) in the test on OVCAR-5; 16.6 µM (inactive) in the test on OVCAR-8; 18.2 µM (inactive) with PC-3. For the same molecule, the GI50 with RPMI-8226 was 18 µM (inactive); in the test with SK-MEL-2, 27.6 µM (inactive); with SNB-75, 12.5 µM (inactive); in the test on SR it was 31.9 µM (inactive); with U-251, 16.4 µM (inactive); in the test on UACC-62 it was 26.9 µM (inactive).

`CC1=C(C)SC(=C2Sc3[n-]c(=O)[nH]c(=O)c3S2)S1.CCCC[N+](CCCC)(CCCC)CCCC`: the GI50 is > 100 µM (inactive) in the test with 786-0; > 100 µM (inactive) in the test with ACHN; > 100 µM (inactive) in the test on BT-549; > 100 µM (inactive) in the test on CAKI-1; > 100 µM (inactive) in the test with HT-29; 95.1 µM (inactive) with MOLT-4. Moreover, the GI50 in the test with NCI-H226 is > 100 µM (inactive); in the test with NCI-H522, 15.1 µM (inactive); with OVCAR-5, > 100 µM (inactive); in the test with OVCAR-8 it was 49.4 µM (inactive); in the test on PC-3, > 100 µM (inactive); in the test on RPMI-8226, > 100 µM (inactive). Further, the GI50 in the test on SN12C was > 100 µM (inactive); with SNB-75, > 100 µM (inactive); in the test with SR, 35.9 µM (inactive); in the test on U-251, > 100 µM (inactive); with UACC-62 it was 27.2 µM (inactive).

In the case of `O=C1Nc2c(Cl)cc(Cl)cc2/C1=N/NC(=O)c1ccccc1O`, the GI50 in the test on 786-0 is 12.8 µM (inactive); in the test with ACHN it was 12.8 µM (inactive); with BT-549, 14.5 µM (inactive); in the test on CAKI-1, 16.8 µM (inactive); in the test on HT-29, 18.7 µM (inactive); in the test with MDA-N, 14.4 µM (inactive). In addition, the GI50 was 10 µM (inactive) with MOLT-4; 14.8 µM (inactive) in the test on NCI-H226; 18.3 µM (inactive) in the test on OVCAR-5; 12.3 µM (inactive) in the test with OVCAR-8; 14.8 µM (inactive) with PC-3; 12.7 µM (inactive) with SK-MEL-2. The GI50 in the test with SN12C is 16.7 µM (inactive); in the test on SNB-75, 9.77 µM (inactive); in the test on SR, 5.4 µM (inactive); with U-251 it was 8.51 µM (inactive); in the test with UACC-62 it was 12.1 µM (inactive).

Consider `N/C(=N\c1ccccc1Cl)c1ccccc1N`, for which the GI50 in the test with 786-0, in the test with ACHN, in the test with BT-549, with CAKI-1, in the test on HT-29 and with MDA-N was > 100 µM (inactive) throughout. Besides, the GI50 in the test on MOLT-4, in the test with NCI-H226, with NCI-H522, in the test with OVCAR-5, in the test with OVCAR-8 and in the test with PC-3 was > 100 µM (inactive) in each case. Besides, the GI50 in the test with RPMI-8226 is > 100 µM (inactive); in the test on SK-MEL-2 it was > 100 µM (inactive); with SNB-75 it was 95.5 µM (inactive); with SR, > 100 µM (inactive); in the test with U-251 it was > 100 µM (inactive); in the test on UACC-62, > 100 µM (inactive).
